{"source": "paper PMC10702058", "about": "“Phase I dose escalation study and pilot efficacy analysis of LXI-15029, a novel mTOR dual inhibitor, in Chinese subjects with advanced malignant solid tumors” (BMC Cancer, 2023)", "key": {"[1]": {"experiment": "Phase I dose escalation: safety and tolerability (DLT, MTD, adverse events, NCI-CTCAE 4.03)"}, "[2]": {"system": "advanced malignant solid tumors", "experiment": "Investigator-assessed antitumor effect (RECIST 1.1: ORR, DCR, PFS)", "method": "All safety, tolerance, PK, and antitumor data from each dose group were tabulated and summarized according to the statistical analysis plan. The statistical analysis of the study was descriptive. The continuous variables were described as mean ± standard deviation or median (minimum, maximum). […] The categorical variables were described as n (%). PFS was summarized using the Kaplan–Meier method. […] All data processing, summaries, and analyses were performed using SAS 9.4 (SAS Institute, Cary, NC, USA)."}}, "note": "“Also recorded” adds a separate entry of the source.", "data": [{"smiles": "CNC(=O)c1cccc(-c2ccc3c(N4C5CCC4COC5)nc(N4CCOC[C@@H]4C)nc3n2)c1", "note": "[LXI-15029]", "values": [{"measurement": "≥ 10% TRAE: Sinus bradycardia", "setting": "[1]; 80 mg BID (n = 4)", "result": "1 (25.0) n (%)"}, {"measurement": "Patients with any TEAE", "setting": "[1]; 110 mg BID (n = 3)", "result": "3 (100.0) n (%)"}, {"measurement": "Patients with any TEAE, maximum CTCAE Grade 1", "setting": "[1]; 110 mg BID (n = 3)", "result": "3 (100.0) n (%)"}, {"measurement": "Patients with any TEAE, maximum CTCAE Grade 2", "setting": "[1]; 110 mg BID (n = 3)", "result": "0 n (%)"}, {"measurement": "Patients with any TEAE, maximum CTCAE Grade 3", "setting": "[1]; 110 mg BID (n = 3)", "result": "0 n (%)"}, {"measurement": "≥ 10% TRAE: ALT increased", "setting": "[1]; 110 mg BID (n = 3)", "result": "1 (33.3) n (%)"}, {"measurement": "≥ 10% TRAE: AST increased", "setting": "[1]; 110 mg BID (n = 3)", "result": "2 (66.7) n (%)"}, {"measurement": "≥ 10% TRAE: Decreased appetite", "setting": "[1]; 110 mg BID (n = 3)", "result": "0 n (%)"}, {"measurement": "≥ 10% TRAE: Diarrhea", "setting": "[1]; 110 mg BID (n = 3)", "result": "0 n (%)"}, {"measurement": "≥ 10% TRAE: ECG QT prolonged", "setting": "[1]; 110 mg BID (n = 3)", "result": "2 (66.7) n (%)"}, {"measurement": "≥ 10% TRAE: Fatigue", "setting": "[1]; 110 mg BID (n = 3)", "result": "0 n (%)"}, {"measurement": "≥ 10% TRAE: GGT increased", "setting": "[1]; 110 mg BID (n = 3)", "result": "0 n (%)"}, {"measurement": "≥ 10% TRAE: Hypercholesterolemia", "setting": "[1]; 110 mg BID (n = 3)", "result": "0 n (%)"}, {"measurement": "≥ 10% TRAE: Hypertriglyceridemia", "setting": "[1]; 110 mg BID (n = 3)", "result": "0 n (%)"}, {"measurement": "≥ 10% TRAE: LDL increased", "setting": "[1]; 110 mg BID (n = 3)", "result": "0 n (%)"}, {"measurement": "≥ 10% TRAE: Leukocytopenia", "setting": "[1]; 110 mg BID (n = 3)", "result": "1 (33.3) n (%)"}, {"measurement": "≥ 10% TRAE: Neutropenia", "setting": "[1]; 110 mg BID (n = 3)", "result": "0 n (%)"}, {"measurement": "≥ 10% TRAE: Sinus bradycardia", "setting": "[1]; 110 mg BID (n = 3)", "result": "0 n (%)"}, {"measurement": "Patients with any TEAE", "setting": "[1]; 150 mg BID (n = 4)", "result": "4 (100.0) n (%)"}, {"measurement": "Patients with any TEAE, maximum CTCAE Grade 1", "setting": "[1]; 150 mg BID (n = 4)", "result": "2 (50.0) n (%)"}, {"measurement": "Patients with any TEAE, maximum CTCAE Grade 2", "setting": "[1]; 150 mg BID (n = 4)", "result": "1 (25.0) n (%)"}, {"measurement": "Patients with any TEAE, maximum CTCAE Grade 3", "setting": "[1]; 150 mg BID (n = 4)", "result": "1 (25.0) n (%)"}, {"measurement": "≥ 10% TRAE: ALT increased", "setting": "[1]; 150 mg BID (n = 4)", "result": "2 (50.0) n (%)"}, {"measurement": "≥ 10% TRAE: AST increased", "setting": "[1]; 150 mg BID (n = 4)", "result": "2 (50.0) n (%)"}, {"measurement": "≥ 10% TRAE: Decreased appetite", "setting": "[1]; 150 mg BID (n = 4)", "result": "1 (25.0) n (%)"}, {"measurement": "≥ 10% TRAE: Diarrhea", "setting": "[1]; 150 mg BID (n = 4)", "result": "0 n (%)"}, {"measurement": "≥ 10% TRAE: ECG QT prolonged", "setting": "[1]; 150 mg BID (n = 4)", "result": "0 n (%)"}, {"measurement": "≥ 10% TRAE: Fatigue", "setting": "[1]; 150 mg BID (n = 4)", "result": "0 n (%)"}, {"measurement": "≥ 10% TRAE: GGT increased", "setting": "[1]; 150 mg BID (n = 4)", "result": "2 (50.0) n (%)"}, {"measurement": "≥ 10% TRAE: Hypercholesterolemia", "setting": "[1]; 150 mg BID (n = 4)", "result": "0 n (%)"}, {"measurement": "≥ 10% TRAE: Hypertriglyceridemia", "setting": "[1]; 150 mg BID (n = 4)", "result": "1 (25.0) n (%)"}, {"measurement": "≥ 10% TRAE: LDL increased", "setting": "[1]; 150 mg BID (n = 4)", "result": "0 n (%)"}, {"measurement": "≥ 10% TRAE: Leukocytopenia", "setting": "[1]; 150 mg BID (n = 4)", "result": "3 (75.0) n (%)"}, {"measurement": "≥ 10% TRAE: Neutropenia", "setting": "[1]; 150 mg BID (n = 4)", "result": "3 (75.0) n (%)"}, {"measurement": "≥ 10% TRAE: Sinus bradycardia", "setting": "[1]; 150 mg BID (n = 4)", "result": "1 (25.0) n (%)"}, {"measurement": "dose-limiting toxicity (DLT)", "setting": "[1]; 150 mg BID group, one participant, within the DLT observation window", "result": "grade 3 increased alanine aminotransferase (ALT); also recorded: Only one DLT was observed"}, {"measurement": "Patients with any TEAE, maximum CTCAE Grade 1", "setting": "[1]; Total (n = 24)", "result": "15 (62.5) n (%)"}, {"measurement": "Patients with any TEAE, maximum CTCAE Grade 2", "setting": "[1]; Total (n = 24)", "result": "6 (25.0) n (%)"}, {"measurement": "Patients with any TEAE, maximum CTCAE Grade 3", "setting": "[1]; Total (n = 24)", "result": "1 (4.2) n (%)"}, {"measurement": "≥ 10% TRAE: ALT increased", "setting": "[1]; Total (n = 24)", "result": "5 (20.8) n (%)"}, {"measurement": "≥ 10% TRAE: AST increased", "setting": "[1]; Total (n = 24)", "result": "5 (20.8) n (%)"}, {"measurement": "≥ 10% TRAE: Decreased appetite", "setting": "[1]; Total (n = 24)", "result": "3 (12.5) n (%)"}, {"measurement": "≥ 10% TRAE: Diarrhea", "setting": "[1]; Total (n = 24)", "result": "4 (16.7) n (%)"}, {"measurement": "≥ 10% TRAE: ECG QT prolonged", "setting": "[1]; Total (n = 24)", "result": "5 (20.8) n (%)"}, {"measurement": "≥ 10% TRAE: Fatigue", "setting": "[1]; Total (n = 24)", "result": "4 (16.7) n (%)"}, {"measurement": "≥ 10% TRAE: GGT increased", "setting": "[1]; Total (n = 24)", "result": "4 (16.7) n (%)"}, {"measurement": "≥ 10% TRAE: Hypercholesterolemia", "setting": "[1]; Total (n = 24)", "result": "3 (12.5) n (%)"}, {"measurement": "≥ 10% TRAE: Hypertriglyceridemia", "setting": "[1]; Total (n = 24)", "result": "5 (20.8) n (%)"}, {"measurement": "≥ 10% TRAE: LDL increased", "setting": "[1]; Total (n = 24)", "result": "3 (12.5) n (%)"}, {"measurement": "≥ 10% TRAE: Leukocytopenia", "setting": "[1]; Total (n = 24)", "result": "10 (41.7) n (%)"}, {"measurement": "≥ 10% TRAE: Neutropenia", "setting": "[1]; Total (n = 24)", "result": "4 (16.7) n (%)"}, {"measurement": "≥ 10% TRAE: Sinus bradycardia", "setting": "[1]; Total (n = 24)", "result": "4 (16.7) n (%)"}, {"measurement": "TRAEs of CTCAE grade 1", "setting": "[1]; all doses", "result": 62.5, "unit": "%"}, {"measurement": "TRAEs of CTCAE grade 2", "setting": "[1]; all doses", "result": 25, "unit": "%"}, {"measurement": "other serious treatment-related AEs (besides the DLT)", "setting": "[1]; all doses", "result": "No other serious treatment-related AEs were reported"}, {"measurement": "mean ALT change from baseline", "setting": "[1]; all doses except the 10-mg and 80-mg doses", "result": "increased slightly"}, {"measurement": "mean AST change from baseline", "setting": "[1]; all doses except the 10-mg, 60-mg, and 80-mg doses", "result": "increased slightly"}, {"measurement": "treatment-related AE: hypertriglyceridemia", "setting": "[1]; all doses, 24 patients", "result": 20.8, "unit": "%"}, {"measurement": "treatment-related AE: increased alanine aminotransferase", "setting": "[1]; all doses, 24 patients", "result": 20.8, "unit": "%"}, {"measurement": "treatment-related AE: increased aspartate aminotransferase", "setting": "[1]; all doses, 24 patients", "result": 20.8, "unit": "%"}, {"measurement": "treatment-related AE: leukocytopenia", "setting": "[1]; all doses, 24 patients", "result": 41.7, "unit": "%"}, {"measurement": "treatment-related AE: prolonged electrocardiogram QT interval", "setting": "[1]; all doses, 24 patients", "result": 20.8, "unit": "%"}, {"measurement": "deaths within 28 days of the last dose", "setting": "[1]; attributed to disease progression unrelated to treatment", "result": "One"}, {"measurement": "association of AE rates, laboratory parameters, vital signs, ECG, other safety data with dose levels", "setting": "[1]; descriptive results", "result": "No apparent associations"}, {"measurement": "participants with TEAEs leading to LXI-15029 discontinuation", "setting": "[1]; of 24 participants", "result": "Three"}, {"measurement": "participants with a TRAE leading to LXI-15029 discontinuation", "setting": "[1]; of 24 participants", "result": "one"}, {"measurement": "participants with a serious TRAE", "setting": "[1]; of 24 participants", "result": "one"}, {"measurement": "participants with serious TEAEs", "setting": "[1]; of 24 participants", "result": "Five"}, {"measurement": "participants with treatment-emergent AEs (TEAEs)", "setting": "[1]; of 24 participants", "result": 24, "unit": "participants"}, {"measurement": "participants with treatment-related AEs (TRAEs)", "setting": "[1]; of 24 participants", "result": 22, "unit": "participants"}, {"measurement": "patients with TEAEs occurring within 30 days after LXI-15029 discontinuation", "setting": "[1]; of 24 participants", "result": "Eleven"}, {"measurement": "treatment discontinuation because of AEs", "setting": "[1]; of 24 participants", "result": "2 (8.3%) n (%)"}, {"measurement": "treatment discontinuation because of DLT", "setting": "[1]; of 24 participants", "result": "1 (4.2%) n (%)"}, {"measurement": "tolerability", "setting": "[1]; oral BID, 10 to 150 mg", "result": "well tolerated at all doses; also recorded: well tolerated at all dose levels; also recorded: well tolerable"}, {"measurement": "maximum tolerated dose (MTD)", "setting": "[1]; oral monotherapy, Chinese patients with advanced solid tumors", "result": 110, "unit": "mg BID"}, {"measurement": "disease control rate (DCR)", "setting": "[2]; 8/20 evaluable, 95% CI 21.7–60.6", "result": 40, "unit": "%"}, {"measurement": "complete or partial response (CR or PR)", "setting": "[2]; 20 evaluable participants", "result": "No participants achieved CR or PR"}, {"measurement": "median progression-free survival", "setting": "[2]; evaluable patients, overall, from first dose", "result": 29, "unit": "days"}, {"measurement": "relationship between Ctrough and median PFS or DCR", "setting": "[2]; exposure-efficacy analysis", "result": "no relationship was found"}, {"measurement": "DCR-dose correlation", "setting": "[2]; in vivo", "result": "No DCR-dose correlation was observed"}, {"measurement": "patients with stable disease", "setting": "[2]; of 20 evaluable", "result": "Eight"}, {"measurement": "duration of SD", "setting": "[2]; one participant with fibrosarcoma, 20 mg BID", "result": 344, "unit": "days"}, {"measurement": "median PFS", "setting": "[2]; patients with breast cancer, 95% CI: 0.89–4.63", "result": 0.95, "unit": "months"}, {"measurement": "median PFS", "setting": "[2]; patients with sarcoma, 95% CI: 0.92–11.33", "result": 0.97, "unit": "months"}]}]}
